Test [1] concerns HCV genotype 1a (H77 strain) replicon in HUH-7 cells. Nature of the test: HCV replicon luciferase reporter assay, genotype 1a. Format: cell-based. To be noted: Hepatitis C virus, Huh-7, 72 h, HCV genotype 1a replicon luciferase assay, 3 days incubation, range class, read-out: LE_1a (EC50, range). The essentials: (§1)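 Replicon inhibition for both genotypes was measured as Renilla luciferase signal (EnduRen, 7.5 μM final, 2 h) after 3-day, 37° C exposure of replicon-bearing HUH-7 cells in 4% FCS DMEM, 0.5% DMSO. The 1b construct carries S1179I; the 1a H77 construct carries P1496L and S2204I. Twenty-point, 3-fold dilutions were fitted four-parametrically for EC50, and CC50 was taken from multiplexed Cell Titer-Blue.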

Test [2] has as its system HCV genotype 1b (Con1) replicon in HUH-7 cells. As to the kind of experiment: HCV replicon luciferase reporter assay, genotype 1b. Format: cell-based. The settings on record: Hepatitis C virus, Huh-7, 72 h, HCV genotype 1b replicon luciferase assay, 3 days incubation, range class, read-out: LE_1b (EC50, range). A digest of the protocol: as §1

As to `COc1cnc(O[C@@H]2C[C@H]3C(=O)N[C@]4(C(=O)NS(=O)(=O)C5(CF)CC5)C[C@H]4/C=C\CC[C@@H](C)C[C@@H](C)[C@H](NC(=O)OC(C)(C)C(F)(F)F)C(=O)N3C2)c2ccc(N(C)C)cc12` [Compound 3144, 1,1,1-trifluoro-2-methylpropan-2-yl((2R,6S,7R,9R,13aS,14aR,16aS,Z)-2-((6-(dimethylamino)-4-methoxyisoquinolin-1-yl)oxy)-14a-(((1-(fluoromethyl)cyclopropyl)sulfonyl)carbamoyl)-7,9-dimethyl-5,16-dioxo-1,2,3,5,6,7,8,9,10,11,13a,14,14a,15,16,16a-hexadecahydrocyclopropa[e]pyrrolo[1,2-a][1,4]diazacyclopentadecin-6-yl)carbamate], the EC50 in test [1] and in test [2] was < 5.46 nM each time.

Turning to `COc1cnc(O[C@@H]2C[C@H]3C(=O)N[C@]4(C(=O)NS(=O)(=O)C5(CF)CC5)C[C@H]4/C=C\CC[C@H](C)C[C@@H](C)[C@H](NC(=O)OC(C)(C)C)C(=O)N3C2)c2ccc(F)cc12` [Compound 3145, tert-butyl ((2R,6S,7R,9S,13aS,14aR,16aS,Z)-2-((6-fluoro-4-methoxyisoquinolin-1-yl)oxy)-14a-(((1-(fluoromethyl)cyclopropyl)sulfonyl)carbamoyl)-7,9-dimethyl-5,16-dioxo-1,2,3,5,6,7,8,9,10,11,13a,14,14a,15,16,16a-hexadecahydrocyclopropa[e]pyrrolo[1,2-a][1,4]diazacyclopentadecin-6-yl)carbamate], the EC50 in test [1] and in test [2] was 4.82 to 103 nM each time.

Turning to `COc1cnc(O[C@@H]2C[C@H]3C(=O)N[C@]4(C(=O)NS(=O)(=O)C5(CF)CC5)C[C@H]4/C=C\CC[C@@H](C)C[C@@H](C)[C@H](NC(=O)OC(C)(C)C)C(=O)N3C2)c2ccc(F)cc12` [Compound 3146, tert-butyl ((2R,6S,7R,9R,13aS,14aR,16aS,Z)-2-((6-fluoro-4-methoxyisoquinolin-1-yl)oxy)-14a-(((1-(fluoromethyl)cyclopropyl)sulfonyl)carbamoyl)-7,9-dimethyl-5,16-dioxo-1,2,3,5,6,7,8,9,10,11,13a,14,14a,15,16,16a-hexadecahydrocyclopropa[e]pyrrolo[1,2-a][1,4]diazacyclopentadecin-6-yl)carbamate], the concentration for a half-maximal effect (EC50) in test [1] and in test [2] was < 5.46 nM each time.

In the case of `COc1ccc2c(O[C@@H]3C[C@H]4C(=O)N[C@]5(C(=O)NS(=O)(=O)C6CC6)C[C@H]5/C=C\CC[C@H](C)C[C@@H](C)[C@H](NC(=O)OC(C)(C)C)C(=O)N4C3)nccc2c1F` [Compound 3147, tert-butyl ((2R,6S,7R,9S,13aS,14aR,16aS,Z)-14a-((cyclopropylsulfonyl)carbamoyl)-2-((5-fluoro-6-methoxyisoquinolin-1-yl)oxy)-7,9-dimethyl-5,16-dioxo-1,2,3,5,6,7,8,9,10,11,13a,14,14a,15,16,16a-hexadecahydrocyclopropa[e]pyrrolo[1,2-a][1,4]diazacyclopentadecin-6-yl)carbamate], the EC50 (in general, the midpoint of the concentration-response curve) in test [1] is 4.82 to 103 nM; in test [2] it was < 5.46 nM.

Regarding `COc1ccc2c(O[C@@H]3C[C@H]4C(=O)N[C@]5(C(=O)NS(=O)(=O)C6CC6)C[C@H]5/C=C\CC[C@@H](C)C[C@@H](C)[C@H](NC(=O)OC(C)(C)C)C(=O)N4C3)nccc2c1F` [Compound 3148, tert-butyl ((2R,6S,7R,9R,13aS,14aR,16aS,Z)-14a-((cyclopropylsulfonyl)carbamoyl)-2-((5-fluoro-6-methoxyisoquinolin-1-yl)oxy)-7,9-dimethyl-5,16-dioxo-1,2,3,5,6,7,8,9,10,11,13a,14,14a,15,16,16a-hexadecahydrocyclopropa[e]pyrrolo[1,2-a][1,4]diazacyclopentadecin-6-yl)carbamate], the EC50 in test [1] and in test [2] was < 5.46 nM each time.
